These results are taken from patent US4889953A, “Glycerol derivatives, their production and use” (Takeda Chemical Industries, Ltd., priority 1986, dated 1989).

Experiment [1] has as its system Sarcoma 180 cells. Put plainly: Antitumor action, Sarcoma 180 intraperitoneal in ICR mice, life-span and survivors on 40th day (Test Example 1). Format: in vivo. The note with it: 0.33 mg/mouse i.p. three times; for Life-span prolongation ratio (T/C, %): only related to mice found dead. The method, then:
Antitumor action of the compounds in Working Examples
ICR mice (a group consisting of five mice) were inoculated intraperitoneally with 1×10^5 Sarcoma 180 cells per mouse, and then given intraperitoneally 0.33 mg/mouse of a compound dissolved in physiological saline, three times, i.e. 1 hour, 1 day and 2 days after inoculation. Reference compound IV, Va or Vb was given to mice under the same conditions. Shown in Table 1 are the life-span prolongation ratio against the untreated control group and the number of survived mice on the 40th day after the initiation of the test.

Experiment [2] relates to Platelet aggregation caused by PAF. Put plainly: Inhibition of PAF-induced platelet aggregation in rabbit PRP (Test Example 5). Format: cell-based. Conditions: Oryctolagus cuniculus, PAF 1×10^-8 M, read-out: inhibition ratio (%) of PAF-induced platelet aggregation; for inhibition at 30 µM: 3 × 10^-5 M; for inhibition at 3 µM: 3 × 10^-6 M; for inhibition at 0.3 µM: 3 × 10^-7 M. The method, then: Blood was collected directly from a male rabbit, using a syringe containing 3.15% of citric acid (at a ratio of 1 part to 9 parts of blood) as an anticoagulant, and centrifuged at 800 rpm for 10 minutes at room temperature to obtain platelet rich plasma (PRP). The remaining blood was centrifuged further at 3000 rpm for 10 minutes to obtain platelet poor plasma (PPP) as the supernatant. By dilution of PRP with PPP, the platelet count was adjusted to about 500,000 cells/μl. After 250 μl of the resulting PRP was stirred at 37° C. for 2 minutes, a certain amount of the test compound was added, and the mixture was stirred for further 2 minutes, and then 1×10^-8 M of PAF was added. Platelet aggregation was measured by using a platelet aggregometer (manufactured by Rika Denki Co. in Japan). The aggregation-inhibiting activity of a test compound was determined from the inhibition ratio against maximal transmittance (maximal aggregation ratio) caused by PAF in the control PRP.

Experiment [3] deals with mouse mammary carcinoma cells MM46. Nature of the experiment: Antitumor action, MM46 intraperitoneal in C3H mice, life-span and survivors on 40th day (Test Example 3). Format: in vivo. The note with it: 0.25 mg/mouse once a day for 4 days. The procedure:
(§1) Antitumor action of the compound of Working Example 8
C3H mice (a group consisting of 5 mice) were inoculated intraperitoneally with 1×10^4 mouse mammary carcinoma cells MM46 per mouse, and given 0.25 mg/mouse of the compound of Working Example 8 dissolved in physiological saline once a day for 4 consecutive days starting from the second day after the inoculation. The Reference compound (IV) was given under the same conditions. Shown in Table 3 are the life-span prolongation ratio against the untreated control group and the number of survived mice on the 40th day after initiation of the test.

Experiment [4] has as its system Sarcoma 180 cells. Put plainly: Antitumor action, Sarcoma 180 subcutaneous in ICR mice, oral dosing (Test Example 9). The experiment is classed as in vivo. The note with it: 0.3 mg/mouse orally eight times, after 20 days. The method, then: Antitumor action of the compounds of Working Examples 8 and 24
ICR mice (a group consisting of 5 mice) were inoculated subcutaneously at the dorsolateral area with […] 1×10^6 Sarcoma 180 cells per mouse, and given orally 0.3 mg/mouse of the compound of Example 8 or the compound of Example 24 eight times in total, i.e. 8th, 9th, 10th, 13th, 14th, 15th, 16th, and 17th day after inoculation. After 20 days the tumor tissue was extirpated and the tumor weight was weighed. Shown in Table 9 is tumor proliferation inhibition ratio against the untreated control.

The subject of experiment [5] is mouse mammary carcinoma cells MM46. Nature of the experiment: Antitumor action, MM46 intraperitoneal in C3H mice, life-span and survivors on 60th day (Test Example 8). The experiment is classed as in vivo. The note with it: for Life-span prolongation ratio (T/C, %): mice found dead only. From the text: (§2) Antitumor action of the compounds of Working Examples
C3H mice (a group consisting of 5 mice) were inoculated intraperitoneally with 1×10^4 mouse mammary carcinoma cells MM46 per mouse, […] saline once a day for 4 consecutive days starting from the second day after inoculation. Shown in Table 8 are the life-span prolongation ratio against the untreated control group and the number of survived mice on the 60th day after initiation of the test.

Experiment [6] relates to Sarcoma 180 cells. Nature of the experiment: Antitumor action, Sarcoma 180 subcutaneous in ICR mice, intravenous dosing, tumor proliferation inhibition (Test Example 2). Format: in vivo. The note with it: tumor weight after 21 days. The method, then: as §1
ICR mice (a group consisting of 5 mice) were inoculated subcutaneously with 1×10^6 Sarcoma 180 cells per mouse, and given intravenously 0.03 mg/mouse or 0.3 mg/mouse of the compound of Working Example 8 dissolved in physiological saline 9 times in total, i.e. 8, 9, 10, 13, 14, 15, 16, 17, and 20 days after inoculation. The Reference compound (IV), 0.3 mg/mouse, was given under the same conditions. After 21 days, the tumor tissue was extirpated and the tumor weight was weighed. Shown in Table 2 is tumor proliferation inhibition ratio as compared with the untreated control group.

For experiment [7], the system named is Sarcoma 180 cells. Put plainly: Antitumor action, Sarcoma 180 intraperitoneal in ICR mice, life-span and survivors on 60th day (Test Example 6). The note with it: Sarcoma-180, ip, 1440 h; for response vs control in vivo at 0.33 mg: read-out: Life-span prolongation ratio (T/C). Format: in vivo. The method, then:
as §2
ICR mice (a group consisting of five mice) were inoculated intraperitoneally with 1×10^5 Sarcoma 180 cells per mouse, and then given intraperitoneally 0.33 mg/mouse of a compound dissolved in physiological saline, three times, i.e. 1 hour, 1 day and 2 days after inoculation. Shown in Table 6 are the life-span prolongation ratio against the untreated control group and the number of survived mice on the 60th day after the initiation of the test.

The subject of experiment [8] is Sarcoma 180 cells. Nature of the experiment: Antitumor action, Sarcoma 180 subcutaneous in ICR mice, intravenous dosing, tumor proliferation inhibition (Test Example 7). Format: in vivo. Conditions: 0.3 mg/mouse i.v. 9 times; tumor weight after 21 days. The method, then: as §2
ICR mice (a group consisting of 5 mice) were inoculated subcutaneously with 1×10^5 Sarcoma 180 cells per mouse, and given intravenously 0.3 mg/mouse of a compound of a Working Example dissolved in physiological saline 9 times in total, i.e. 8, 9, 10, 13, 14, 15, 16, 17, and 20 days after inoculation. After 21 days, the tumor tissue was extirpated and the tumor weight was weighed. Shown in Table 7 is tumor proliferation inhibition ratio as compared with the untreated control group.

Setting [9] is: 0.125 mg/mouse once a day for 4 days.
The mark [10] stands for this setting: 0.25 mg/mouse once a day for 4 days.
[11] abbreviates: 0.33 mg/mouse i.p. three times, 60th day, read-out: No. of survivors/No. of mice tested (converted).
Setting [12] is: 0.33 mg/mouse i.p. three times, survivors on day 60 not included.

Like-named read-outs stand apart in the source and are kept apart here.

As to `CCCCCCCCCCCCCCCCCCOCC(COCC[N+](C)(C)C)OC` (stereo not drawn) [Compound Va, reference compound], in the experiment on Sarcoma 180 cells [1], the “No. of survivors/No. of mice tested” value is on record as 1/5 and the “Life-span prolongation ratio (T/C, %)” value is listed as 241%. In experiment [2], the inhibition at 30 µM turned out to be 27%, the inhibition at 3 µM was determined as 0% and the inhibition at 0.3 µM was 0%.
Consider `CCCCCCCCCCCCCCCCCCOCC(COCCCC[N+](C)(C)C)OC` (stereo not drawn) [Compound Vb, reference compound], for which, in the experiment on Sarcoma 180 cells [1], the “No. of survivors/No. of mice tested” value is 0/5 and the “Life-span prolongation ratio (T/C, %)” value came out at 291%. Moreover, in experiment [2], the inhibition at 30 µM was 97%, the inhibition at 3 µM is 5% and the inhibition at 0.3 µM was 0%.
Take `CCCCCCCCCCCCCCCCCCOCC(COCCOCC[N+](C)(C)C)OC` (stereo not drawn) [Example 8, 2-[2-[2-Methoxy-3-(octadecyloxy)propyloxy]ethoxy]ethyltrimethylammonium chloride]: the “No. of survivors/No. of mice tested” value in the experiment on Sarcoma 180 cells [1] was 5/5; in experiment [3], 5/5; in experiment [5] (setting [9]) it was 2/5; in experiment [5] (setting [10]), 3/5. Moreover, the “Weight of tumor” value in the experiment on Sarcoma 180 cells [4] was determined as 0.35 ± 0.04 g. Further, the “Inhibition ratio (%)” value in the experiment on Sarcoma 180 cells [4] (against untreated control) came to 75%. The results for the “Life-span prolongation ratio (T/C, %)” value in experiment [5] (setting [9]) and in experiment [5] (setting [10]) were 144% and 315%, respectively. In experiment [2], the inhibition at 30 µM is 100%. Further, the inhibition at 3 µM in experiment [2] stood at 38%. Moreover, the inhibition at 0.3 µM in experiment [2] came out at 18%. Besides, the “Inhibition ratio (1-T/C) (%)” value with Sarcoma 180 cells [6] (0.03 mg/mouse i.v. 9 times) and in the experiment on Sarcoma 180 cells [6] (0.3 mg/mouse i.v. 9 times) was 65% in each case.
Turning to `CCCCCCCCCCCCCCCCCCOCC(COCCOCCOCC[N+](C)(C)C)OC` (stereo not drawn) [Example 9, 2-[2-[2-[2-Methoxy-3-(octadecyloxy)propyloxy]ethoxy]ethoxy]ethyltrimethylammonium chloride], in the experiment on Sarcoma 180 cells [1], the “No. of survivors/No. of mice tested” value was 1/5 and the “Life-span prolongation ratio (T/C, %)” value turned out to be 247%. In experiment [2], the inhibition at 30 µM was 100%, the inhibition at 3 µM is 66% and the inhibition at 0.3 µM was determined as 3%.
Consider `CCCCCCCCCCCCCCCCCCOCC(COCCOCC[N+](C)(C)C)OC(=O)CC(C)=O.[Cl-]` (stereo not drawn) [Example 12, 2-[2-[2-(Acetoacetyloxy)-3-(octadecyloxy)propyloxy]ethoxy]ethyltrimethylammonium chloride], for which the “No. of survivors/No. of mice tested” value in experiment [5] (setting [10]) is reported as 3/5; in experiment [5] (0.5 mg/mouse once a day for 4 days) it was 5/5. The “Life-span prolongation ratio (T/C, %)” value in experiment [5] (setting [10]) is on record as 126%. The responders at 0.33 mg in the experiment on Sarcoma 180 cells [7] (setting [11]) is 40%. Besides, the response vs control in vivo at 0.33 mg in the experiment with Sarcoma 180 cells [7] (setting [12]) came to 292%.
As for `CCCCCCCCCCCCCCCCCCOCC(COCCOCCOCC[N+](C)(C)C)OC(=O)CC(C)=O` (stereo not drawn) [Example 15, 2-[2-[2-[2-(Acetoacetyloxy)-3-(octadecyloxy)propyloxy]ethoxy]ethoxy]ethyltrimethylammonium chloride], in the experiment with Sarcoma 180 cells [1], the “No. of survivors/No. of mice tested” value is recorded as 4/5 and the “Life-span prolongation ratio (T/C, %)” value is recorded as 291%. Moreover, in experiment [2], the inhibition at 30 µM turned out to be 100% and the inhibition at 3 µM came out at 43%.
For `CC(=O)CC(=O)OC(COCCCCCCCCCCCCC1CCCCC1)COCCOCC[N+](C)(C)C` (stereo not drawn) [Example 26, 2-[2-[2-Acetoacetyloxy-3-(12-cyclohexyl)dodecyloxypropyloxy]ethoxy]ethyltrimethylammonium chloride], the responders at 0.33 mg in the experiment with Sarcoma 180 cells [7] (setting [11]) was 0%. In addition, the response vs control in vivo at 0.33 mg in the experiment on Sarcoma 180 cells [7] (setting [12]) was 295%. In addition, the “Inhibition ratio (1-T/C) (%)” value with Sarcoma 180 cells [8] turned out to be 60%.
As to `CCCCCCCCCCCCCCCCCCOCC(COCCOCC[N+](C)(C)C)OCC(C)=O` (stereo not drawn) [Example 29, 2-[2-[3-(Octadecyloxy)-2-(2-oxopropyloxy)propyloxy]ethoxy]ethyltrimethylammonium chloride], the responders at 0.33 mg in the experiment with Sarcoma 180 cells [7] (setting [11]) was 60%. The response vs control in vivo at 0.33 mg in the experiment with Sarcoma 180 cells [7] (setting [12]) was determined as 220%.
For `CCCCCCCCCCCCCCCCCCOCC(COCCOCC[N+](C)(C)C)OC(=S)NC` (stereo not drawn) [Example 42, 2-[2-[2-(Methylthiocarbamoyloxy)-3-(octadecyloxy)propyloxy]ethoxy]ethyltrimethylammonium chloride] the same measures were 0% and 340%.
The like results for `CNC(=S)OC(COCCCCCCCCCCCCC1CCCCC1)COCCOCC[N+](C)(C)C` (stereo not drawn) [Example 43, 2-[2-[3-(12-Cyclohexyl)dodecyloxy-2-N-methylthiocarbamoyloxypropyloxy]ethoxy]ethyltrimethylammonium chloride] were, in that order, 20% and 323%.
Regarding `CCCCCCCCCCCCCCCCCCOCC(COCCOCC[N+](C)(C)C)OCC1CO1` (stereo not drawn) [Example 47, 2-[2-[2-(2,3-Epoxypropyloxy)-3-(octadecyloxy)propyloxy]ethoxy]ethyltrimethylammonium chloride], in the experiment with Sarcoma 180 cells [7] (setting [11]), the responders at 0.33 mg is 20%. For the same compound, the response vs control in vivo at 0.33 mg in the experiment on Sarcoma 180 cells [7] (setting [12]) stood at 237%.
As for `COC(COCCCCCCCCCCCC(F)(F)C(F)(F)C(F)(F)C(F)(F)C(F)(F)C(F)(F)C(F)(F)C(F)(F)F)COCCOCC[N+](C)(C)C` (stereo not drawn) [Example 51, 2-[2-[2-Methoxy-3-(12,12,13,13,14,14,15,15,16,16, 17,17,18,18,19,19,19-heptadecafluorononadecyloxy)propyloxy)ethoxy]ethyltrimethylammonium chloride], the response vs control in vivo at 0.33 mg in the experiment with Sarcoma 180 cells [7] (Mus musculus) is 295%. For the same compound, in the experiment with Sarcoma 180 cells [7] (Mus musculus, read-out: No. of survivors/No. of mice tested), the responders at 0.33 mg stood at 0%.
As for `COC(COCCOCC[N+](C)(C)C)COCCC(C)CCCC(C)CCCC(C)CCCC(C)C` (stereo not drawn) [Example 59, 2-[2-[2-Methoxy-3-(3,7,11,15-tetramethylhexadecyloxy)propyloxy]ethoxy]ethyltrimethylammonium chloride], the responders at 0.33 mg in the experiment on Sarcoma 180 cells [7] (setting [11]) is 0%. In addition, in the experiment with Sarcoma 180 cells [7] (setting [12]), the response vs control in vivo at 0.33 mg is 224%.
In the case of `C[N+](C)(C)CCOCCOCC(COCCCCCCCCCCCCC1CCCCC1)OCC(=O)[O-]` (stereo not drawn) [Example 66, 3-(12-Cyclohexyldodecyloxy)methyl-10-trimethylammonio-2,5,8-trioxadecane carboxylate], the responders at 0.33 mg with Sarcoma 180 cells [7] (setting [11]) was 0%. Also, the response vs control in vivo at 0.33 mg with Sarcoma 180 cells [7] (setting [12]) was determined as 235%.
